Data as given in patent US20040034009A1, “1,6-Fused uracil derivatives as matrix metalloproteinase inhibitors” (priority 2002, published 2004).

Biological target: human MMP-13 catalytic domain (hMMP-13CD) (Homo sapiens, UniProt P45452)
Experiment: Inhibition of MMP-13 catalytic domain (thiopeptolide substrate assay)
Format: biochemical
From the text: The assays measure the amount by which a test compound reduces the hydrolysis of a thiopeptolide substrate catalyzed by a matrix metalloproteinase enzyme. Such assays are described in detail by Ye et al., in Biochemistry, 1992;31(45):11231-11235, which is incorporated herein by reference. One such assay is described below in Biological Method 1.
Thiopeptolide substrates show virtually no decomposition or hydrolysis at or below neutral pH in the absence of a matrix metalloproteinase enzyme. A typical thiopeptolide substrate commonly utilized for assays is Ac-Pro-Leu-Gly-thioester-Leu-Leu-Gly-OEt. […] The change in absorbance at 405 nm is monitored on a Thermo Max microplate reader (molecular Devices, Menlo Park, Calif.) at room temperature (22° C.). […]
Some representative compounds of Formula I have been evaluated for their ability to inhibit MMP-13. Inhibitor activity versus other MMPs with the compounds may be determined using, for example, MMP-1FL, which refers to full length interstitial collagenase; MMP-2FL, which refers to full length Gelatinase A; MMP-3CD, which refers to the catalytic domain of stromelysin; MMP-7FL, which refers to full length matrilysin; MMP-9FL, which refers to full length Gelatinase B; MMP-13CD, which refers to the catalytic domain of collagenase 3; and MMP-14CD, which refers to the catalytic domain of MMP-14. […]

- IC50: > 50 µM
SMILES: O=C(O)c1ccc(Cn2ccc3ccc(C#CCn4ccnn4)cc3c2=O)cc1 [4-[1-oxo-7-(3-[1,2,3]triazol-1-ylprop-1-ynyl)-1H-isoquinolin-2-ylmethyl]benzoic acid]
